One experiment concerns the target Mu-type opioid receptor (Homo sapiens, UniProt P35372). It is filed as functional, cell-based.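 Note: U2OS cells with beta-arrestin recruitment to OPRM1 by beta-gal complementation.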
Experiment [1] concerns the target 5-hydroxytryptamine receptor 2A (Mus musculus, UniProt P35363). The format is functional, cell-based.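 Note: CHO-K1 cells with tagged receptor and beta-arrestin; agonist potency measured as compound-induced activation of the receptor.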
For experiment [2], the target named is DNA (cytosine-5)-methyltransferase 1 (Homo sapiens, UniProt P26358). Briefly: inhibition of DNA methylation by DNMT1 – biochemical, fluorescent molecular beacon, confirmation (AID 602386). It is filed as functional.
The target of the next experiment is T1, ORF 73 (Human herpesvirus 8, UniProt O40947).
T1 sequence (O40947 whole entry): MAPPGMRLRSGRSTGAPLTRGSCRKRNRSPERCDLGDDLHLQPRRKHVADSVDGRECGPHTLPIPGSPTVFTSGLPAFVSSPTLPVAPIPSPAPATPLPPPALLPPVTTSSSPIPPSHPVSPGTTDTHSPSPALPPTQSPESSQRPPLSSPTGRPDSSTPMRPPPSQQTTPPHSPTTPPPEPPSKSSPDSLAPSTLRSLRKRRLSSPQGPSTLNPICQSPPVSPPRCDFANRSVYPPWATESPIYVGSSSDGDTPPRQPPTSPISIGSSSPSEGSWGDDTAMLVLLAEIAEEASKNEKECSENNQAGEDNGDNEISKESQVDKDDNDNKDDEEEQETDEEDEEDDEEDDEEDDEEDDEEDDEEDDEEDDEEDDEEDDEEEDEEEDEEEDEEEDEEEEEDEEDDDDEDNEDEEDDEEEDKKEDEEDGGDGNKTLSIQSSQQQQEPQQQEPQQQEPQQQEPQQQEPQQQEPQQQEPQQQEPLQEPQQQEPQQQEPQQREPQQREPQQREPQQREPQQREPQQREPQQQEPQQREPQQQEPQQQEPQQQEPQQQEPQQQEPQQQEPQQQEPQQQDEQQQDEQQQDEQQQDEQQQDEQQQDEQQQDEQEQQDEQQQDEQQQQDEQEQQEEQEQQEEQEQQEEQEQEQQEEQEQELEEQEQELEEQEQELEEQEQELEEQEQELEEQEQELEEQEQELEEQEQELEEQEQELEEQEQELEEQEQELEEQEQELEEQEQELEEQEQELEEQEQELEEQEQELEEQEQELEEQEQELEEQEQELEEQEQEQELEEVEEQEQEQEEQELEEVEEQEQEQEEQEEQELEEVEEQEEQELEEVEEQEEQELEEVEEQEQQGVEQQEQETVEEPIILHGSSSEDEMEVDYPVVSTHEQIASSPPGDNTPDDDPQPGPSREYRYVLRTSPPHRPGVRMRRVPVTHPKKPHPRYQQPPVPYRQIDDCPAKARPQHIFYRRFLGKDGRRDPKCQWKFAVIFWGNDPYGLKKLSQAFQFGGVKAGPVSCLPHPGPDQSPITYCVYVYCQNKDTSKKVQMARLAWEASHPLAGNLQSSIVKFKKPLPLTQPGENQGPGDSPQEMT
Briefly: KSHV LANA DNA-binding disruption – biochemical, fluorescence polarization, cherry-picked samples, dose response (AID 504725).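 Note: fluorescence polarization of a labeled DNA duplex reporting LANA DNA binding; potency is for inhibitors that block LANA binding to the DNA.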 Also noted: species or system Human gammaherpesvirus 8.

For experiment [3], the target named is T2, Carboxy-terminal domain RNA polymerase II polypeptide A small phosphatase 1 (Homo sapiens, UniProt Q9GZU7).
T2 sequence (Q9GZU7 whole entry): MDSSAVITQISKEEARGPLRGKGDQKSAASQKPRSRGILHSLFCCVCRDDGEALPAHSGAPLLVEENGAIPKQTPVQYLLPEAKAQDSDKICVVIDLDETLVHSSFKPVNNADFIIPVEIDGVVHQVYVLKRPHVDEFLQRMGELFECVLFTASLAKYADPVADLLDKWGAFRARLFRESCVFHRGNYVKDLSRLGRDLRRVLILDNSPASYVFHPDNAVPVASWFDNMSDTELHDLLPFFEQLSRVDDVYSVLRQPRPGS
Briefly: CTDSP1 inhibitors, concentration-response, biochemical, absorbance readout, ultra-high-throughput screen actives (AID 540297). It is filed as functional.

In experiment [4] the target is T3, Voltage-gated N-type calcium channel alpha-1B subunit/Amyloid beta A4 precursor protein-binding family A member 1 (Homo sapiens, UniProt Q00975+Q02410). It is filed as protein assay.
T3 sequence (Q00975 whole entry): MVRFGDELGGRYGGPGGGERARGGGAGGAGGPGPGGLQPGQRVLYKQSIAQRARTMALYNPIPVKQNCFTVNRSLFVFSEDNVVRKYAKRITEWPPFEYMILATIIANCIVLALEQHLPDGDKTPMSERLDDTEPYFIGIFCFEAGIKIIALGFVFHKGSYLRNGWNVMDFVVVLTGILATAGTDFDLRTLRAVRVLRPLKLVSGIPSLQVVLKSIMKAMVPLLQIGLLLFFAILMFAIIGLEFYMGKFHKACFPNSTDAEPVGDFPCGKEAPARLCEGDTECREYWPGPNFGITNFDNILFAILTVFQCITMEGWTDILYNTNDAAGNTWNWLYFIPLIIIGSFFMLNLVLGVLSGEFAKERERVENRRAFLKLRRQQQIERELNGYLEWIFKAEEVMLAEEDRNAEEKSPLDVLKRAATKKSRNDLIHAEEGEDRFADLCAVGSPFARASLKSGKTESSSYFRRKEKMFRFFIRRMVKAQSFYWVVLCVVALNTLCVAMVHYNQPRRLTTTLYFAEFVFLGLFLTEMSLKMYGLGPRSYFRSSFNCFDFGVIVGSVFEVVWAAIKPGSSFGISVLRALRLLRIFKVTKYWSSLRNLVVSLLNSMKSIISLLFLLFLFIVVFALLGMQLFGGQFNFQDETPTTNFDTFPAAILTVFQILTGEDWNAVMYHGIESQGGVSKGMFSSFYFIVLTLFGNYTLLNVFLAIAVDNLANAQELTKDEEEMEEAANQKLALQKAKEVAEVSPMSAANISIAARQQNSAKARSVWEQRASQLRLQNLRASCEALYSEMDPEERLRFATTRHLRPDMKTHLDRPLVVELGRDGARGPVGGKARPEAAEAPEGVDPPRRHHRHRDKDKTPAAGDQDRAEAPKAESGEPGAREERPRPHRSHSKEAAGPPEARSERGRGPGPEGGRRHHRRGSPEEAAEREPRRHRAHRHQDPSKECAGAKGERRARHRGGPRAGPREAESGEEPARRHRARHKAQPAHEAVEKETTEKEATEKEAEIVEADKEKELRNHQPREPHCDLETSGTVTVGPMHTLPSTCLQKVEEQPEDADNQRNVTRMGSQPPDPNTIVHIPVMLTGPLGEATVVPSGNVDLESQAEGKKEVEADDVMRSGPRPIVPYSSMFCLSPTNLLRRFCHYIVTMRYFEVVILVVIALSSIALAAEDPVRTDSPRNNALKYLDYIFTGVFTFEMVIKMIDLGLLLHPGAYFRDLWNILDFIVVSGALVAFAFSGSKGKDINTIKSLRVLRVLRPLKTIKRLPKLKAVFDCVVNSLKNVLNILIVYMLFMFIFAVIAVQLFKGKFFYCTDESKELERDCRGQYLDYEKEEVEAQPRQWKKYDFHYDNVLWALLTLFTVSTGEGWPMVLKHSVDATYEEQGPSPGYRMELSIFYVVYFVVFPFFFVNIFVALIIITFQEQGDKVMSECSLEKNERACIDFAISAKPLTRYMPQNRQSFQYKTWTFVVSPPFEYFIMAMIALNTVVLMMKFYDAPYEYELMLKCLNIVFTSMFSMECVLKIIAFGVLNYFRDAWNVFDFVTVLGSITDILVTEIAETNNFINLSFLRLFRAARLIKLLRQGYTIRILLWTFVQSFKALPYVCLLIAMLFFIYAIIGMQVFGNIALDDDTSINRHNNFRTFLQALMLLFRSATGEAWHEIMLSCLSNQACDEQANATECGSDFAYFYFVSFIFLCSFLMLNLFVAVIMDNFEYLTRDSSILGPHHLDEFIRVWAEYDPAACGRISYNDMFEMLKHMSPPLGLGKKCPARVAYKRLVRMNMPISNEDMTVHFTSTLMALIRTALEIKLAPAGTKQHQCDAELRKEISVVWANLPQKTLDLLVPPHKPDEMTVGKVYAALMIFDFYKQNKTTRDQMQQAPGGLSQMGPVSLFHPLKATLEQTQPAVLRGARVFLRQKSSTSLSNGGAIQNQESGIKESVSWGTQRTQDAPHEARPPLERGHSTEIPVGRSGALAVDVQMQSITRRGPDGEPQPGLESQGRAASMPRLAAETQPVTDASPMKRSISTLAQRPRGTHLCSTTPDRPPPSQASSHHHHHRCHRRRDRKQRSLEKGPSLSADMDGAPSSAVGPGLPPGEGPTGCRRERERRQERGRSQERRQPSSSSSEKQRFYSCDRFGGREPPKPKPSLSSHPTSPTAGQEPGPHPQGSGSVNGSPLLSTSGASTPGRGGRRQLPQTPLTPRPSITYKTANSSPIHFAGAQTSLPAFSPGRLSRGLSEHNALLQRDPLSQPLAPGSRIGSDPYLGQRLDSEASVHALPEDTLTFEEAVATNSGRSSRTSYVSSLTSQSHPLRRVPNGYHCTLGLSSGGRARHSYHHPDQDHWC
T3 sequence (Q02410 whole entry): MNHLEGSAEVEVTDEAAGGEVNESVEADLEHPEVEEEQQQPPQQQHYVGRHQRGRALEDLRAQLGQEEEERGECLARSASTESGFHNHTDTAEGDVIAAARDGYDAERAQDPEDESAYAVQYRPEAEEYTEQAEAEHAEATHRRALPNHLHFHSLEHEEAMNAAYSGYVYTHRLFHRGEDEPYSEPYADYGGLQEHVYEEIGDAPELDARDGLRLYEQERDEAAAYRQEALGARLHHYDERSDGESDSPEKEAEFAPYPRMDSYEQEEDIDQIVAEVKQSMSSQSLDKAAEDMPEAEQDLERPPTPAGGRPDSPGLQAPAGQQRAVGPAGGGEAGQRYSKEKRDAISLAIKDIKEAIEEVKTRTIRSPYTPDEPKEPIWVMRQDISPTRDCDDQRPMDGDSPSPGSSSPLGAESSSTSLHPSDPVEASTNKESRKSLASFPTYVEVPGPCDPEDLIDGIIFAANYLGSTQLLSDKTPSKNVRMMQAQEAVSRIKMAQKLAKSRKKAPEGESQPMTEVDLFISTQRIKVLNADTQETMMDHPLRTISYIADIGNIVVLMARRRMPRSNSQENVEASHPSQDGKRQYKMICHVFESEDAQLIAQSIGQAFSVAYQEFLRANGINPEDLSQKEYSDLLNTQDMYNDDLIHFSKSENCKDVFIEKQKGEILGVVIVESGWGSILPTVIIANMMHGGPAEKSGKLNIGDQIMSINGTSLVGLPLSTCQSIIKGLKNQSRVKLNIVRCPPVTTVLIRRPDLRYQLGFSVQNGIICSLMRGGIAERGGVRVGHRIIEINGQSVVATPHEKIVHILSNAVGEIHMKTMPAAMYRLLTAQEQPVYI
Experiment [5] concerns the target T3, Voltage-gated N-type calcium channel alpha-1B subunit/Amyloid beta A4 precursor protein-binding family A member 1. It is filed as protein assay. This is another data set of the same source.
A short description of experiment [6]: loss of viability in HepG2 cells – cell-based, CellTiter-Glo, cherry-picked, cytotoxicity control for Shn3 inhibitor project, dose response (AID 624134). The format is functional. On the technique in general: In ATP-based viability assays light output follows the ATP content of the culture.
Experiment [7] can be described thus: reduction of Shn3 3'UTR-driven luciferase in osteoblasts – cell-based, Clone20 osteoblasts, firefly luciferase, cherry-picked, dose response (AID 624132).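 Note: firefly luciferase luminescence from reporter carrying the Shn3 3'UTR in osteoblasts.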 It is filed as functional.
The target in experiment [8] is T4, Low molecular weight phosphotyrosine protein phosphatase (Homo sapiens, UniProt P24666).
T4 sequence (P24666 whole entry): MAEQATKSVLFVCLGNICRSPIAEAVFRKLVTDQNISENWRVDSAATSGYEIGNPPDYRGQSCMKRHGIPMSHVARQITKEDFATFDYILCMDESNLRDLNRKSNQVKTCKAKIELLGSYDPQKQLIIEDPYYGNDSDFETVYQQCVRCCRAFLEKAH
The format is functional. The settings on record: read-out: IC50_Mean.

Experiment [9] is described as follows: non-specific 3'UTR reporter inhibition in Clone20-Shn3RL – cell-based, Renilla luciferase, cherry-picked, counter-screen for Shn3 inhibitor project, dose response (AID 624133). The format is functional.
The target in experiment [10] is T4, Low molecular weight phosphotyrosine protein phosphatase. It is filed as functional. The settings on record: read-out: IC50_Mean. This is another data set of the same source.
For experiment [11], the target named is T5, Tyrosine-protein phosphatase non-receptor type 22 (Homo sapiens, UniProt Q9Y2R2).
T5 sequence (Q9Y2R2 whole entry): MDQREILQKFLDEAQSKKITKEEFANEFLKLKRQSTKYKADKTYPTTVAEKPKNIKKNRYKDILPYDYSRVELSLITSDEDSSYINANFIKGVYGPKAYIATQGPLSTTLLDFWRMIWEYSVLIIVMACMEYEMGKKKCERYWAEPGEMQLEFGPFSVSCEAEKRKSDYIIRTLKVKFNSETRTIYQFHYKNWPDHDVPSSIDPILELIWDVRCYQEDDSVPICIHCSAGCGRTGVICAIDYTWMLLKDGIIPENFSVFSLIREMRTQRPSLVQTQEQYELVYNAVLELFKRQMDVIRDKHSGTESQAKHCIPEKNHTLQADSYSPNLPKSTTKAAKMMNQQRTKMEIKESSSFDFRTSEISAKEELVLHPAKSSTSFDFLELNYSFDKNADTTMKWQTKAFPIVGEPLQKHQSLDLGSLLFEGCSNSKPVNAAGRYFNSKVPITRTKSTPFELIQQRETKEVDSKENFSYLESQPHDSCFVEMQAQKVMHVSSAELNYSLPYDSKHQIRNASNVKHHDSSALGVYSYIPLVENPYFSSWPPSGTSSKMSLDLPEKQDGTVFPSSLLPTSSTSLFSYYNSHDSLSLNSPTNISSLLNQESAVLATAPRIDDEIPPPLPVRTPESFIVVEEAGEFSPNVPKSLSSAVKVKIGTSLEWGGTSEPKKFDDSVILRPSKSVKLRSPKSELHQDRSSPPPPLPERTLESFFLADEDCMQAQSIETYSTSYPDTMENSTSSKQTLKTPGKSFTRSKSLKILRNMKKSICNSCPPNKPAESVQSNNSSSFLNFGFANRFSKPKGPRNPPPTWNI
Briefly: PTPN22 enzyme inhibitors – biochemical, fluorescence, LYP catalytic domain, selectivity assay for LMPTP inhibitor project, dose response (AID 652006). The format is functional. The settings on record: read-out: IC50_Mean.

For experiment [12], the target named is T6, Corticotropin-releasing factor receptor 2/Corticotropin-releasing factor-binding protein (Homo sapiens, UniProt P24387+Q13324).
T6 sequence (Q13324 whole entry): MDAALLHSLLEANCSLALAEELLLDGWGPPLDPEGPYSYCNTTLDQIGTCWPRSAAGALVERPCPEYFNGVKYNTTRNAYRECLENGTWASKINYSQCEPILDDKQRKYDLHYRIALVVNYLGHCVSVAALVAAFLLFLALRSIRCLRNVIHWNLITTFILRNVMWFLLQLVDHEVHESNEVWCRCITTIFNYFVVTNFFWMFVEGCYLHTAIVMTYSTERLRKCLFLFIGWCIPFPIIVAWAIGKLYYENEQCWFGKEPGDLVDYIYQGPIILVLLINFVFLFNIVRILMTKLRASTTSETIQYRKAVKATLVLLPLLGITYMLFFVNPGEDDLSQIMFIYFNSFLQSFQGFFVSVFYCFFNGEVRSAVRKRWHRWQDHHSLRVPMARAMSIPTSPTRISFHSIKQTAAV
T6 sequence (P24387 whole entry): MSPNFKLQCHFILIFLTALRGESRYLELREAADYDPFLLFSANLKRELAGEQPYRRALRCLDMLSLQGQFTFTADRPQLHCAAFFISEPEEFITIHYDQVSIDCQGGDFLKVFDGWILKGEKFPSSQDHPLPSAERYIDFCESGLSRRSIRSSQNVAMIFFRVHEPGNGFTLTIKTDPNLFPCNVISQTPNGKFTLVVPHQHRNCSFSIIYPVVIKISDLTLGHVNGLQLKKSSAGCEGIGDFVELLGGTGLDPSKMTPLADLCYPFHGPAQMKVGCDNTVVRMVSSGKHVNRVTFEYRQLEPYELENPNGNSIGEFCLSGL
Briefly: activators of CRF receptor 2 with binding protein – uHTS hits, confirmation (AID 602473). The format is functional. The settings on record: read-out: EC50_Mean.

A short description of experiment [13]: blockers of CRF-binding protein–CRF-R2 complex – cell-based, uHTS hits, 384-well, dose response (AID 651639). The format is functional, Homo sapiens. The note with it: read-out: IC50_Mean.
For experiment [14], the target named is T6, Corticotropin-releasing factor receptor 2/Corticotropin-releasing factor-binding protein. Briefly: Dose Response confirmation of uHTS hits for small molecule antagonists of the CRF-binding protein and CRF-R2 receptor complex. The format is functional. The note with it: read-out: IC50_Mean.
For another experiment, the target named is Melanocortin receptor 4 (Homo sapiens, UniProt P32245). The format is functional, cell-based.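 Note: Cell-based assay with luminescence read-out, confirmatory dose-response testing for agonist activity of biased ligands at MC4R; human U2OS cells with tagged receptor and beta-arrestin; potency of agonists that increase receptor coupling to beta-arrestin.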
Chain of Melanocortin receptor 4 (P32245 whole entry): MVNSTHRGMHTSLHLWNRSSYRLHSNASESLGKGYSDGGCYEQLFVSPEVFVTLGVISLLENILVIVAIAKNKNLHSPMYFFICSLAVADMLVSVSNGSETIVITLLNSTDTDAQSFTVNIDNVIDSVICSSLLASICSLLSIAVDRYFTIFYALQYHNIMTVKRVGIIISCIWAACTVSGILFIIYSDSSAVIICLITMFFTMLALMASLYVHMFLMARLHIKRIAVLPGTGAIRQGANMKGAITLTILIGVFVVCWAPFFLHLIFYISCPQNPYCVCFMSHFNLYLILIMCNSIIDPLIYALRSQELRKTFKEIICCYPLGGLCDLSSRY
Experiment [15] addresses T7, ATP-dependent translocase ABCB1 (Homo sapiens, UniProt P08183). Briefly: inhibition of BCRP-mediated JC-1 efflux – Ig-MXP3 cells, flow cytometry, set 2, dose response (AID 504566).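 Note: flow cytometry median green fluorescence of retained JC-1 dye; potency of efflux pump inhibition measured as rising substrate retention.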 The note with it: read-out: EC50_MICROM_. It is filed as functional. (A flow cytometer gives signals particle by particle.)
The target in experiment [16] is T7, ATP-dependent translocase ABCB1. Briefly: P-gp JC-1 efflux blockade concentration-response – Jurkat-DNR cells, flow cytometry, set 2, dose response (AID 504569).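 Note: potency of pump inhibitors that raise cellular JC-1 green fluorescence up to the nicardipine level.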 The format is functional. The settings on record: read-out: EC50_MICROM_.

Molecules are shown by their SMILES. Activity calls are given as the source filed them. A value given as a limit tells only on which side of the number the result lay.

T7 sequence (P08183 whole entry): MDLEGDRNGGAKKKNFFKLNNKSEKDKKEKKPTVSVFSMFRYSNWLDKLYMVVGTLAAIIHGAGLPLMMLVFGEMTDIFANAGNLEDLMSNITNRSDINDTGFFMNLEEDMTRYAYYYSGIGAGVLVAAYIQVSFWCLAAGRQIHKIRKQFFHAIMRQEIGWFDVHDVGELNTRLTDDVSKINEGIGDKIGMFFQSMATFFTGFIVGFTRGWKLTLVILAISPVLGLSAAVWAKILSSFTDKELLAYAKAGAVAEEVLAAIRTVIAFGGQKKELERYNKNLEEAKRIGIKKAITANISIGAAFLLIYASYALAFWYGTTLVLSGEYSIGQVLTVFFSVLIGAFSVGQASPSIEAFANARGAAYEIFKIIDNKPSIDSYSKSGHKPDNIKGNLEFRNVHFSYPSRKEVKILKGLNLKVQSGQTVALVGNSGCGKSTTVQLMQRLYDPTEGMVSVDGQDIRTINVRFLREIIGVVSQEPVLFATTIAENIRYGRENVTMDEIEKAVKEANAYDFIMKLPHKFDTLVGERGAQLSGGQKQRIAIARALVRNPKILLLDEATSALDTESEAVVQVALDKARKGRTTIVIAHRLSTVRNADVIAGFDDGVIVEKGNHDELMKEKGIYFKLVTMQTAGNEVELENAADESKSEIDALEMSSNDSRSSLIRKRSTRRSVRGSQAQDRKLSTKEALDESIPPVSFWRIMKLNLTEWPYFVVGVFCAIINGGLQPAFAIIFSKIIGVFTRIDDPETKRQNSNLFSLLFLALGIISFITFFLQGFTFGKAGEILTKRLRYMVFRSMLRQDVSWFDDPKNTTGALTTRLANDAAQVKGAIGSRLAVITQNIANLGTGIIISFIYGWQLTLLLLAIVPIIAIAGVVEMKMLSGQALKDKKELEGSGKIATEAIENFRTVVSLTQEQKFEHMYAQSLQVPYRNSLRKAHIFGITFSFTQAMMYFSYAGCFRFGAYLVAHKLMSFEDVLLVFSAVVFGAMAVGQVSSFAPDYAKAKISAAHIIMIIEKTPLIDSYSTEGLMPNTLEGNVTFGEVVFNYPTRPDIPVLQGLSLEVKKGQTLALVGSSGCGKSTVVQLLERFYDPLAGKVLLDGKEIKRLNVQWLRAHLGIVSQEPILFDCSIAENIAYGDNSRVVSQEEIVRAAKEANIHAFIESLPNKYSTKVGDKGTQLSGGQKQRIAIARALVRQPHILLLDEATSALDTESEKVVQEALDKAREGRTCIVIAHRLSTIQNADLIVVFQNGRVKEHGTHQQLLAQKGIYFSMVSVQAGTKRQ

Consider `O=[N+]([O-])c1cccc(CN2CCN(c3ncccn3)CC2)c1`, for which the EC50 at Mu-type opioid receptor was 92.5 µM (inactive); in experiment [1], 22.3 µM (inactive).

In general, AC50 refers to the concentration at which the activity in the assay is half-maximal. `C=C(C)C(=O)Nc1cccc(C2=NOC3(C2)C[C@@H](C(N)=O)N(C(=O)C2(C)CC2)C3)c1` (some centres undefined): the IC50 in experiment [2] is 1.45 µM (active); in experiment [3], 0.408 µM (active); in experiment [4], 1.84 µM (active); in experiment [5] it was > 50 µM (inactive). Also, the AC50 at ORF 73 was 17.9 µM (active).

`COc1cccc(CNc2nc(NCC3CC3)nc3ccsc23)c1OC`: the AC50 is 34 µM (active) in [6], 4.48 µM (active) in experiment [7] and 23.6 µM (active) in experiment [9]. In addition, the IC50 in experiment [8] is 11.5 µM (active); in experiment [10] it was 12.3 µM (active); in [11] it was 33.3 µM (inactive).

For the compound `CCCCNC(=O)CCn1c(=O)c2ccccc2n(Cc2ccccc2C)c1=O`, the EC50 in experiment [12] is > 53 µM (inactive). In addition, the IC50 is 19.8 µM (active) in experiment [13] and 2.98 µM (active) in [14].

On to `O=C(NC(c1ccccc1)c1ccsc1)C1CCN(CCOc2ccc(Cl)cc2Cl)CC1` (centres undefined), for which the EC50 at Melanocortin receptor 4 was > 89.2 µM (inactive).

For `O=C(c1ccoc1)N1CCCN(c2cc(-c3ccccc3)nc3cc(-c4cccc(Cl)c4)nn23)CC1`, the figures for the EC50 in experiment [15] and in experiment [16] were 1.98 µM (active) and 6 µM (active), respectively.

Source of the values: ChEMBL document CHEMBL1201862, “PubChem BioAssay data set” (2004).
